Data reported in patent publication US6224850A, “Antiwrinkle cosmetic/pharmaceutical compositions comprising iridaceae extracts” (Societe L'Oreal S.A., priority 1996, dated 2001).

Legend:
Glycine receptor = Glycine receptor (Rattus norvegicus, UniProt P07727); assay: biochemical; format: binding
GABA-A receptor = format: binding, rat; conditions: dose displacing 50% of tritiated muscimol; nonlabelled muscimol
[1] = tested on: convulsions induced by strychnine in mice; conditions: mouse, in vivo

Sequence of Glycine receptor (P07727 29-457): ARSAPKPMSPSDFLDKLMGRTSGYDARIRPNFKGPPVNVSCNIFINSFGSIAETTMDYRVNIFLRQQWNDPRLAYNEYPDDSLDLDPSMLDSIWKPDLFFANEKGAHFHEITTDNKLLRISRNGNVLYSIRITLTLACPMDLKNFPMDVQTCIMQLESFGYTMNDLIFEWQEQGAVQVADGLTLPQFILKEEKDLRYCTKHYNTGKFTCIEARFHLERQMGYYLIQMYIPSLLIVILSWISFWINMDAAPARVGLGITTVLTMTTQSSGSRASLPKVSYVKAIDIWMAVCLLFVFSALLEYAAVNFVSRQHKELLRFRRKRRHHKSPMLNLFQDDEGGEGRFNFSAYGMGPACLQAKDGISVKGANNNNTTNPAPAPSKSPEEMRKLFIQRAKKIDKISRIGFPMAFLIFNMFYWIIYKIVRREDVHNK
Sequence of Glycine receptor (P20781 23-496, further chain): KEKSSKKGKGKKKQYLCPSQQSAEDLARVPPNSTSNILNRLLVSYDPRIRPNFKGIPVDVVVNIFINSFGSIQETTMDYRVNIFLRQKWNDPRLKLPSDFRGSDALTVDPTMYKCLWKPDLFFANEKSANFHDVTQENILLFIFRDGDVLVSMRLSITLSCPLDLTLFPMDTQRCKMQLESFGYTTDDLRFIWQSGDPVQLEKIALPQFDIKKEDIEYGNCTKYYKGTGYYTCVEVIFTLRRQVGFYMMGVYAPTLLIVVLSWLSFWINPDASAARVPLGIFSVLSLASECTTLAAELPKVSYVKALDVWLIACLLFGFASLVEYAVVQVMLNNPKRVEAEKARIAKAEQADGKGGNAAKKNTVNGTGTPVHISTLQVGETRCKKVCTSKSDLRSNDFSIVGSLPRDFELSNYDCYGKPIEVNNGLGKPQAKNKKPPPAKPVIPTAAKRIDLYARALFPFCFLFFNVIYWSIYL

**Q.** For O=C1C[C@@H]2OCC=C3CN4CC[C@]56c7ccccc7N1[C@H]5[C@H]2[C@H]3C[C@H]46 [strychnine], which IC50 (Glycine receptor) is on record?
**A.** 0.0269 µM

**Q.** For NCc1cc(=O)[nH]o1 [muscimol], which IC50 (GABA-A receptor) is on record?
**A.** 0.0082 µM

**Q.** With CN1C(=O)CN=C(c2ccccc2)c2cc(Cl)ccc21 [Diazepam] as the molecule, how does the “Delay in the appearance of the convulsions” value [1] read?
**A.** 3431

**Q.** What about the “Variation (%) of delay” value [1] of the same molecule?
**A.** +1190
